Measured values from patent publication US10426388B2, “Prediction of tumor recurrence by measuring oxygen saturation” (THE GENERAL HOSPITAL CORPORATION, priority 2014, dated 2019).
“And” between values parts separate entries of the source, which are not always exact repeats. Equal entries are not always repeated. “Also recorded” adds a separate entry of the source.

Assays:
subcutaneous U87 tumors [1] = assay: Longitudinal volume monitoring of subcutaneous U87 tumors after BPD-PDT; assay type: in vivo, mice
Excerpt: Chen et al., Int J Radiat Oncol Biol Phys., 61(4):1216-26 (2005); Chen et al., Crit Rev Eukaryot Gene Expr., 16(4):279-305 (2006). It was postulated in previous work that at 1-hr the PS localizes to both cellular and vascular compartments of the tumor while at 3-hrs, most of the PS is extra vascular and primarily cellular therefore less likely to impact the tumor oxygenation status. Iinuma et al., Cancer Research, 59(24):6164-70 (1999). […] Amongst the mice that underwent PDT with 1-hr DLI, there was no regrowth for ˜two weeks and at that point 35% of the mice started to show recurrence and an increase in tumor volume (FIG. 6, dashed line), while 65% mice had no palpable tumor 30 days post therapy (FIG. 6, solid line). To test if PAI could monitor the changes in StO2 in the tumor due to PDT, The inventors designated the 1-hr DLI group with a sustained absence of palpable tumors up to 30 days post treatment (FIG. 6, triangles joined by solid line) as the “PDT responding group” and the mice in the 3-hr DLI group (FIG. 6, squares joined by solid line) were considered the “PDT non-responding group”.
(§1) Animal Model: All animal experiments were approved by the Subcommittee on Research Animal Care of Massachusetts General Hospital. Female athymic Swiss nude mice (Cox, Cambridge, Mass.), 8-10 weeks old, were anesthetized with isoflurane USP (Baxter, Deerfield, Ill.) and inoculated subcutaneously with 3×10^6 U87 cells in 300 μL, of Matrigel (BD Bioscience, San Jose, Calif.). Tumor volumes were measured using calipers by two researchers separately. Tumor volume was calculated using the formula; π/6×Length×Width×Height and photographs of the tumors were obtained.
(§2) PDT Treatment: Mice were injected intravenously with 0.5 mg/kg of BPD-MA, then PDT was performed as follows. Mice were placed under the laser light source and covered with black cloth except tumor area. 1 or 3-hrs post injection, mice were irradiated with 100 J/cm^2 using a 690 nm laser diode source (Model 7401; Intense, North Brunswick, N.J.) at a fluence rate of 100 mW/cm^2 as measured via a VEGA laser power energy meter (Ophir Laser Measurement Group, LLC).

subcutaneous U87 tumors [2] = assay: Photoacoustic imaging of tumor StO2 and HbT before and after BPD-PDT; assay type: in vivo, mice
Experimental: StO2 and HbT content were measured in both the 1-hr DLI responding group and 3-hr DLI (nonresponders) group of mice (n=6 per group) at 4 time points (before PDT (Pre-PDT), immediately post-PDT, 6-hrs and 24-hrs post-PDT) to determine if PAI could predict treatment response. FIG. 7A and FIG. 7B show representative images of the change in StO2 and HbT content at various time points in a responding and non-responding tumor respectively. Ultrasound imaging identified region of interest (green ROI in FIGS. 7A and 7B is the tumor region). FIG. 7C and FIG. 7D represent the average of StO2 values and HbT values in the tumor ROI from ˜350 B-scans per mouse (6 mice in each group, ˜55-75 B-scans per 3D tumor volume). […] This phenomena is in agreement with the studies by Wang et al. and is attributed to cell death and a decrease in the metabolic consumption of oxygen in the tumor area. Wang et al., Cancer Research, 64(20):7553-61 (2004).
as §1, §2
Ultrasound and Photoacoustic Imaging: Image acquisition and quantitation was performed using the ultrasound and photoacoustic imaging system (Vevo LAZR, FUJIFILM VisualSonics, Inc.). Light generated from a tunable laser operating at either 750 nm or 850 nm was delivered through fiber optic bundles integrated into a linear array transducer (LZ-250, 21 MHz). The Oxy-Hemo feature of the Vevo LAZR software was used to acquire the oxygen-saturation images. Mice were imaged under isoflurane. Physiological status (ECG, respiration, and body temperature) of the mice was closely monitored during image acquisition sessions. 3D ultrasound and photoacoustic images were acquired at a step size of 0.152 mm. The Vevo LAZR workstation software was utilized to mark the tumor region of interest and obtain the StO2 and HbT values for every B-scan. The workstation allowed export of the raw data. The raw data is processed using customized MATLAB routines and integrated with 3D visualization software AMIRA to obtain the prediction maps.

[3] = Photobleaching of BPD in phantom tubes by photoacoustic imaging (fluorescence before/after PAI); assay type: physicochemical; conditions: fluorescence at 690 nm
Experimental: The FDA approved photosensitizer Benzoporphryin derivative (BPD-MA) (Aveline et al., Photochemistry and Photobiology, 59(3):328-35 (1994)) with absorption peaks at […] was used for all PDT experiments. To achieve better depth of light penetration, 690 nm light was used for PDT. PAI was performed at 750 nm and 850 nm wavelength illumination to deduce StO2 from the oxygenated and deoxygenated hemoglobin signal as described by Needles et al. Needles et al., IEEE Trans Ultrason Ferroelectr Freq Control. 60(5):888-97 (2013). At these wavelengths, the absorbance of BPD is minimal (FIG. 5A). PAI was performed using pulsed nanosecond laser (10 nsec pulse width) illumination. […] Fluorescence imaging on the tubes were performed using a Maestro imaging system (CRI Inc.) with an excitation at 405 nm and emission at 690 nm.
Fluorescence imaging: Fluorescence images of two phantom tube (500 um inner diameter) containing phosphate buffered saline (PBS) and liposomal BPD were acquired using a CRi Maestro system. […] Fluorescence images at 690 nm were acquired. A custom Matlab routine was used to quantify fluorescence signals in the tubes. […] Fluorescence image of the tubes were acquired and the tubes were again irradiated with laser of the Vevo LAZR system operating at 690 nm (10 ns pulse width at 10 Hz, 44.5 mJ/cm^2 fluence). […]

subcutaneous U87 tumors [4] = assay: Validation of tumor hypoxia with pimonidazole/CD31 immunofluorescence after BPD-PDT; assay type: in vivo, mice; conditions: 1-hr DLI (responding group) compared with 3-hr DLI (non-responding) group
Excerpt: The inventors next validated the hypoxic conditions observed in photoacoustic images with pimonidazole stain for hypoxia. Gerling et al., Theranostics, 4(6):604-13 (2014). Tumors were sectioned in a similar orientation as the imaging cross-section. CD31 stain was utilized to depict the tumor vasculature while pimonidazole stained the hypoxic regions. In the 1-hr DLI group (FIGS. 8A-4D), Immunofluorescence (IF) images show hypoxia adjacent to the vasculature depicted by the CD31 stain. The hypoxia is due to the vascular damage caused by PDT and disruption of the blood flow in these vessels. Zoomed images of the H&E stain of the adjacent cross section show vascular congestions. […] It is also to be noted that the fluorescence of the pimonidazole stain is stronger in the 1-hr DLI (responding group) tumor than in the 3-hr DLI (non-responding) group given the severe hypoxic conditions created by PDT.
Immunohistochemistry: An overview of the immunofluorescence staining protocol used in this study is published previously by the inventors. […] The slides were washed in PBS and secondary antibody (Donkey Anti-Goat IgG NL493 Affinity Purified PAb (R&D systems Inc) was applied for 2-hrs at room temperature. Finally the slides were washed and sealed with coverslip. A whole slide scanning fluorescence imaging system (Hamamatsu NanoZoomer 2.0-RS) at 40× magnification was used to image the slides.

tumor = assay: Tumor hypoxia/oxygenation after irinotecan detected by photoacoustic imaging; assay type: in vivo
[5] = responding 1-hr DLI group, 6-hrs post-PDT
[6] = responding 1-hr DLI group, 24-hrs post-PDT

In the case of “benzoporphyrin derivative monoacid ring-A [BPD]”, the “mice showing recurrence (local tumor recurrence)” value (subcutaneous U87 tumors [1]; 1-hr DLI PDT) is reported as about 35%, the time without regrowth (subcutaneous U87 tumors [1]; 1-hr DLI PDT) is reported as “two weeks” and the “mice with no palpable tumor” value (subcutaneous U87 tumors [1]; 1-hr DLI PDT, 30 days post therapy) is reported as 65%. For the same molecule, the “increase in tumor volume” value (subcutaneous U87 tumors [1]; 3-hr DLI group, three weeks following PDT, 0.5 mg/kg BPD, 100 J/cm^2) was “approximately six-fold”, the “tumor volume difference versus no-treatment group” value (subcutaneous U87 tumors [1]; 3-hr DLI group, p>0.05, Students t-test) was “no significant difference” and the “HbT value versus pre-PDT value” (subcutaneous U87 tumors [2]; 1-hr DLI group, 6-hrs post-PDT) was “significantly higher”. For the same molecule, the “StO2 immediately post-PDT versus pre-PDT” value (subcutaneous U87 tumors [2]; 1-hr DLI group, p<0.001) was “increase in oxygenation”, the “HbT signal at 6-hrs and 24-hrs post-PDT” value (subcutaneous U87 tumors [2]; 3-hr DLI group) was “no statistical difference” and the “StO2 24-hrs post-PDT versus pre-PDT” value (subcutaneous U87 tumors [2]; 3-hr DLI group) was “No statistically significant difference”. For the same molecule, the “StO2 immediately post-PDT versus pre-PDT” value (subcutaneous U87 tumors [2]; 3-hr DLI group) was “no statistically significant difference”, the “change in StO2 compared to pre-PDT StO2 value” (subcutaneous U87 tumors [2]; 3-hr DLI group, 6-hrs post-PDT) was about 18% and the StO2 (subcutaneous U87 tumors [2]; non-responding 3-hr DLI group, 6-hrs post-PDT) was 47.6%±13.4%. The StO2 (subcutaneous U87 tumors [2]; non-responding 3-hr DLI group, 24-hrs post-PDT) was 55.3%±11.6%, the StO2 (subcutaneous U87 tumors [2]; [5]) was 2.97±1.6% and 2.9%±1.6% and the “decrease in StO2 relative to Pre-PDT value” (subcutaneous U87 tumors [2]; [5]) was ~95% and ~94.3%. The StO2 (subcutaneous U87 tumors [2]; [6]) was 8.03%±4.13%, the “decrease in StO2 relative to pre-PDT value” (subcutaneous U87 tumors [2]; [6]) was ~85% and ~84.8% and the “BPD fluorescence after PAI (photobleaching)” value ([3]; PAI at 690 nm) was “significant decrease in the fluorescence; also recorded: reduced fluorescence”. The “BPD fluorescence signal after PAI compared to pre-imaging value” ([3]; PAI at 750 nm followed by 850 nm pulsed laser irradiation) was “no significant difference; also recorded: no significant change” and the “fluorescence of the pimonidazole stain (hypoxia), 1-hr DLI tumor versus 3-hr DLI tumor” value (subcutaneous U87 tumors [4]) was “stronger”.

In the case of `CCc1c2c(nc3ccc(OC(=O)N4CCC(N5CCCCC5)CC4)cc13)-c1cc3c(c(=O)n1C2)COC(=O)[C@]3(O)CC` [irinotecan], the tumor oxygenation (tumor; after irinotecan treatment, photoacoustic imaging) is reported as “increases tumor oxygenation” and the levels of hypoxia (tumor; from 1 to 24 hours after treatment) is reported as “steadily increasingly decrease”.
